The text below walks through data of patent publication US8293770B2, “Pyrrolidine derivatives as NK-3 receptor antagonists” (Hoffmann-La Roche Inc., priority 2008, dated 2012).

The target of one experiment is T1, recombinant human NK3 receptor (Homo sapiens, UniProt P29371).
T1 construct: expressed in transfected cells; host or cells: HEK293 cells (transient expression), membranes
T1 sequence (P29371 1-465): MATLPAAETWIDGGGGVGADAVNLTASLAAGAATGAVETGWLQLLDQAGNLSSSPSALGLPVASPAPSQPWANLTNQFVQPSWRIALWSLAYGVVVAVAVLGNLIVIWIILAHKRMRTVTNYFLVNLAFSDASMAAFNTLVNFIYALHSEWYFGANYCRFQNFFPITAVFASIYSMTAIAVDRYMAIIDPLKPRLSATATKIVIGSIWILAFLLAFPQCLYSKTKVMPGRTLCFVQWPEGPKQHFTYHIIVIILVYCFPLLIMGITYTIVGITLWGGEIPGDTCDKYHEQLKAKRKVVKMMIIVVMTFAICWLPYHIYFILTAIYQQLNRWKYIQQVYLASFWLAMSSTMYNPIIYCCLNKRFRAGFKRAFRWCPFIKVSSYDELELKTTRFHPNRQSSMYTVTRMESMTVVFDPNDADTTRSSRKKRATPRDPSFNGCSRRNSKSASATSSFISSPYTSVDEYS
Nature of the experiment: [3H]SR142801 competition binding assay. As to conditions: hNK3 receptor binding, [3H]SR142801, membranes from HEK293 cells transiently expressing recombinant human NK3 receptor. The procedure: [^3H]SR142801 competition binding assay
hNK3 receptor binding experiment were performed using [^3H]SR142801 (Catalog No. TRK1035, specific activity: 74.0 Ci/mmol, Amersham, GE Healthcare UK limited, Buckinghamshire, UK) and membrane isolated from HEK293 cells transiently expressing recombinant human NK3 receptor. After thawing, the membrane homogenates were centrifuged at 48,000×g for 10 min at 4° C., the pellets were resuspended in the 50 mM Tris-HCl, 4 mM MnCl2, 1 μM phosphoramidon, 0.1% BSA binding buffer at pH 7.4 to a final assay concentration of 5 μg protein/well. […] At the end of the incubation, membranes were filtered onto unitfilter (96-well white microplate with bonded GF/C filter preincubated 1 h in 0.3% PEI+0.3% BSA, Packard BioScience, Meriden, Conn.) with a Filtermate 196 harvester (Packard BioScience) and washed 4 times with ice-cold 50 mM Tris-HCl, pH 7.4 buffer. Nonspecific binding was measured in the presence of 10 μM SB222200 for both radioligands. The radioactivity on the filter was counted (5 min) on a Packard Top-count microplate scintillation counter with quenching correction after addition of 45 μl of microscint 40 (Canberra Packard S. A., Zürich, Switzerland) and shaking for 1 h. Inhibition curves were fitted according to the Hill equation: y=100/(1+(x/IC50)^nH), where nH=slope factor using Excel-fit 4 software (Microsoft). IC50 values were derived from the inhibition curve and the affinity constant (Ki) values were calculated using the Cheng-Prussoff equation Ki=IC50/(1+[L]/KD) where [L] is the concentration of radioligand and KD is its dissociation constant at the receptor, derived from the saturation isotherm. All experiments were performed in duplicate and the mean±standard error (SEM) of the individual Ki values was calculated.
As usually defined, the Ki is the equilibrium dissociation constant of an inhibitor or competing ligand from its target. As to `CN(Cc1ccc(C(F)(F)F)c(F)c1)[C@H]1CN(C(=O)c2ccc(-c3ccccn3)cc2)C[C@@H]1c1ccc(Cl)c(Cl)c1` (racemic) [Example 43, {(3SR,4RS)-3-(3,4-Dichloro-phenyl)-4-[(3-fluoro-4-trifluoromethyl-benzyl)-methyl-amino]-pyrrolidin-1-yl}-(4-pyridin-2-yl-phenyl)-methanone], the Ki is 5.1 nM. For the molecule `CN(Cc1ccc(C(F)(F)F)c(F)c1)[C@H]1CN(C(=O)c2ccc(-c3cccnc3)cc2)C[C@@H]1c1ccc(Cl)c(Cl)c1` (racemic) [Example 44, {(3SR,4RS)-3-(3,4-Dichloro-phenyl)-4-[(3-fluoro-4-trifluoromethyl-benzyl)-methyl-amino]-pyrrolidin-1-yl}-(4-pyridin-3-yl-phenyl)-methanone], the inhibition constant Ki turned out to be 5.6 nM. With `CN(Cc1ccc(C(F)(F)F)c(F)c1)[C@H]1CN(C(=O)c2ccc(-c3ccncc3)cc2)C[C@@H]1c1ccc(Cl)c(Cl)c1` (racemic) [Example 45, {(3SR,4RS)-3-(3,4-Dichloro-phenyl)-4-[(3-fluoro-4-trifluoromethyl-benzyl)-methyl-amino]-pyrrolidin-1-yl}-(4-pyridin-4-yl-phenyl)-methanone], the Ki is 2.5 nM. Regarding `CN(Cc1ccc(C(F)(F)F)c(F)c1)[C@H]1CN(C(=O)c2ccc(-c3nnco3)cc2)C[C@@H]1c1ccc(Cl)c(Cl)c1` (racemic) [Example 47, {(3SR,4RS)-3-(3,4-Dichloro-phenyl)-4-[(3-fluoro-4-trifluoromethyl-benzyl)-methyl-amino]-pyrrolidin-1-yl}-(4-[1,3,4]oxadiazol-2-yl-phenyl)-methanone], the inhibitory constant (Ki) was determined as 2.3 nM. In the case of `CN(Cc1ccc(C(F)(F)F)c(F)c1)[C@H]1CN(C(=O)c2ccc(O)nc2)C[C@@H]1c1ccc(Cl)c(Cl)c1` (racemic) [Example 48, {(3SR,4RS)-3-(3,4-Dichloro-phenyl)-4-[(3-fluoro-4-trifluoromethyl-benzyl)-methyl-amino]-pyrrolidin-1-yl}-(6-hydroxy-pyridin-3-yl)-methanone], the Ki was 47.8 nM. Take `CN(Cc1ccc(C(F)(F)F)c(F)c1)[C@H]1CN(C(=O)c2ccc3cnccc3n2)C[C@@H]1c1ccc(Cl)c(Cl)c1` (racemic) [Example 51, {(3SR,4RS)-3-(3,4-Dichloro-phenyl)-4-[(3-fluoro-4-trifluoromethyl-benzyl)-methyl-amino]-pyrrolidin-1-yl}-[1,6]naphthyridin-2-yl-methanone]: the Ki came out at 14.6 nM.

Take `COc1ncc(C(=O)N2C[C@H](c3ccc(Cl)c(Cl)c3)[C@@H](N(C)Cc3ccc(C(F)(F)F)c(F)c3)C2)cn1` (racemic) [Example 57, {(3SR,4RS)-3-(3,4-Dichloro-phenyl)-4-[(3-fluoro-4-trifluoromethyl-benzyl)-methyl-amino]-pyrrolidin-1-yl}-(2-methoxy-pyrimidin-5-yl)-methanone]: the inhibitory constant (Ki) was found to be 22.3 nM.

With `CN(Cc1ccc(C(F)(F)F)c(F)c1)[C@H]1CN(C(=O)c2ccc3nn[nH]c3c2)C[C@@H]1c1ccc(Cl)c(Cl)c1` (racemic) [Example 59, (3H-Benzotriazol-5-yl)-{(3SR,4RS)-3-(3,4-dichloro-phenyl)-4-[(3-fluoro-4-trifluoromethyl-benzyl)-methyl-amino]-pyrrolidin-1-yl}-methanone], the Ki is 31.8 nM. Take `CN(Cc1ccc(C(F)(F)F)c(F)c1)[C@H]1CN(C(=O)c2ccc3nc[nH]c3c2)C[C@@H]1c1ccc(Cl)c(Cl)c1` (racemic) [Example 60, (3H-Benzoimidazol-5-yl)-{(3SR,4RS)-3-(3,4-dichloro-phenyl)-4-[(3-fluoro-4-trifluoromethyl-benzyl)-methyl-amino]-pyrrolidin-1-yl}-methanone]: the inhibitory constant (Ki) is 17.3 nM. Turning to `CC(=O)Nc1ccc(C(=O)N2C[C@H](c3ccc(Cl)c(Cl)c3)[C@@H](N(C)Cc3ccc(C(F)(F)F)c(F)c3)C2)cc1` (racemic) [Example 61, N-(4-{(3SR,4RS)-3-(3,4-Dichloro-phenyl)-4-[(3-fluoro-4-trifluoromethyl-benzyl)-methyl-amino]-pyrrolidine-1-carbonyl}-phenyl)-acetamide], the Ki worked out at 37.3 nM. On to `CN(Cc1ccc(C(F)(F)F)c(F)c1)[C@H]1CN(C(=O)c2ccc(N3CCN(C(=O)OC(C)(C)C)CC3)nc2)C[C@@H]1c1ccc(Cl)c(Cl)c1` (racemic) [Example 63, 4-(5-{(3SR,4RS)-3-(3,4-Dichloro-phenyl)-4-[(3-fluoro-4-trifluoromethyl-benzyl)-methyl-amino]-pyrrolidine-1-carbonyl}-pyridin-2-yl)-piperazine-1-carboxylic acid tert-butyl ester], for which the inhibitory constant (Ki) turned out to be 24.7 nM. In the case of `CN(Cc1ccc(C(F)(F)F)c(F)c1)[C@H]1CN(C(=O)c2ccc(N3CCS(=O)(=O)CC3)nc2)C[C@@H]1c1ccc(Cl)c(Cl)c1` (racemic) [Example 64, {(3SR,4RS)-3-(3,4-Dichloro-phenyl)-4-[(3-fluoro-4-trifluoromethyl-benzyl)-methyl-amino]-pyrrolidin-1-yl}-[6-(1,1-dioxo-1-6-thiomorpholin-4-yl)-pyridin-3-yl]-methanone], the Ki worked out at 2 nM. The same measure, in the same setting: then `CN(Cc1ccc(C(F)(F)F)c(F)c1)[C@H]1CN(C(=O)c2ccc(C#N)cc2)C[C@@H]1c1ccc(Cl)c(F)c1` (racemic) [Example 66, 4-{(3SR,4RS)-3-(4-Chloro-3-fluoro-phenyl)-4-[(3-fluoro-4-trifluoromethyl-benzyl)-methyl-amino]-pyrrolidine-1-carbonyl}-benzonitrile], with 12.6 nM; and `CN(Cc1ccc(C(F)(F)F)c(F)c1)[C@H]1CN(C(=O)c2ccc(-c3cnco3)cc2)C[C@@H]1c1ccc(Cl)c(Cl)c1` (racemic) [Example 67, {(3SR,4RS)-3-(3,4-Dichloro-phenyl)-4-[(3-fluoro-4-trifluoromethyl-benzyl)-methyl-amino]-pyrrolidin-1-yl}-(4-oxazol-5-yl-phenyl)-methanone], with 4.5 nM.

For `CN(Cc1ccc(C(F)(F)F)cc1)[C@H]1CN(C(=O)c2ccc(C#N)cc2)C[C@@H]1c1ccc(Cl)c(Cl)c1` (racemic) [Example 68, 4-{(3SR,4RS)-3-(3,4-Dichloro-phenyl)-4-[methyl-(4-trifluoromethyl-benzyl)-amino]-pyrrolidine-1-carbonyl}-benzonitrile], the inhibitory constant (Ki) stood at 14.6 nM.

System in a further experiment: not given
Assay: not given
As to conditions: phase II trial; altered behavior, delusion, hallucinations, extreme emotions, excited motor activity, incoherent speech; cited from earlier work.
Consider `CC(=O)N(C)C1(c2ccccc2)CCN(CCC[C@]2(c3ccc(Cl)c(Cl)c3)CCCN(C(=O)c3ccccc3)C2)CC1` [SR 142,801, Osanetant], for which the “activity on positive symptoms of schizophrenia” value is “active”.

Staying with this experiment, now noted: phase II trial; depression, anhedonia, social isolation or memory and attention deficits; cited from earlier work.
Turning to `CC(=O)N(C)C1(c2ccccc2)CCN(CCC[C@]2(c3ccc(Cl)c(Cl)c3)CCCN(C(=O)c3ccccc3)C2)CC1` [SR 142,801, Osanetant], the “activity in the treatment of negative symptoms” value is “inactive”.
